In patent US10717734B2, “Indole and azaindole haloallylamine derivative inhibitors of lysyl oxidases and uses thereof” (PHARMAXIS LTD., priority 2016, dated 2020):
Where a name gives a salt, the structure may show the parent alone.

Assays:
[1] = system: primary fibroblasts from confirmed cases of IPF (fibroblastic foci); test: Collagen cross-link formation in in vitro fibroblastic foci model of IPF; assay type: cell-based, human; details: TGF-β1 stimulated foci, six weeks culture with inhibitor
Excerpt: Reduction of Collagen Cross-Link Formation in an in vitro Fibroblastic Foci Model of IPF
The lung tissue of patients with idiopathic pulmonary fibrosis (IPF) is characterised by dense collections of myofibroblasts and extracellular matrix (ECM) termed ‘fibroblastic foci’. Using a novel in vitro model of fibroblastic foci (Jones et al., AJRCCM 191; 2015:A4912) the formation of lysyl oxidase (LOX) mediated collagen cross-links and the effects of the nonselective LOX inhibitor β-aminopropionitrile (BAPN) as well lysyl oxidase like-2 (LOXL2)-selective inhibitors were investigated.
Cultures of primary fibroblasts were grown out from clinical diagnostic biopsies of fibrotic lung and stored in liquid nitrogen. […]
To quantify collagen cross-links (Robins Biochem Soc Trans 2007; 35(5): 849-852; Saito et al Anal. Biochem. 1997; 253: 26-32; Sims, Avery & Bailey Methods in Molecular Biology 2000; vol 139: 11-26), cultures were treated with potassium borohydride to stabilise the reducible immature cross-links, and hydrolysed in 6N HCl at 100° C. for 16 hr. Total collagen content was assessed by hydroxyproline assay. Immature cross-links were assessed by LC/MS/MS and mature pyridinoline cross-links by ELISA. Cross-link data is expressed as moles of cross-link per mole collagen. […]

Bovine LOX = Bovine LOX (Bos taurus (Bovine), UniProt P33072); test: LOX inhibition, peroxidase-coupled Amplex Red amine oxidase assay; assay type: biochemical; details: 30 min preincubation at 37° C., putrescine substrate
In short: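 Bovine LOX in 1.2 M urea, 50 mM sodium borate pH 8.2 […]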

Human LOXL2 = Human LOXL2 (Homo sapiens (Human), UniProt Q9Y4K0); test: LOXL2 inhibition, peroxidase-coupled Amplex Red amine oxidase assay; assay type: biochemical; details: 30 min preincubation at 37° C., putrescine substrate
In short: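 Enzyme preincubated 30 min at 37 °C with compound (11-point curve) in 1.2 M urea, 50 mM borate pH 8.2 plus 1 μM mofegiline and 0.5 mM pargyline; putrescine at twice KM (10 mM for LOXL2), Amplex Red and HRP added. Fluorescence (565/590 nm) read every 2.5 min for 30 min; IC50 from kinetic slopes.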

Recombinant human MAO-B = Recombinant human MAO-B (Homo sapiens (Human), UniProt P27338); test: Human recombinant MAO-B inhibition; assay type: biochemical; details: benzylamine 100 μM
In short: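 Recombinant human MAO-B (0.06 mg/mL) was the enzyme source, with benzylamine substrate at 100 μM. Otherwise run as for the human SSAO/VAP-1 assay.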

[2] = system: CCl4 induced liver fibrosis; test: CCl4 induced liver fibrosis model; assay type: in vivo, rat; details: 0.1-100 mg/Kg
Method: Inhibition of CCl4 Induced Liver Fibrosis
An analysis of the use of LOXL2 inhibitors to treat inflammatory/fibrotic diseases is performed through the use of a CCl4 induced liver fibrosis model. Liver injury is frequently followed by complete parenchymal regeneration due to regenerative potency of hepatocytes. Continuous liver injury due to the administration of CCl4 leads to extracellular matrix accumulation, accompanied by recurrent hepatocyte necrosis, inflammation, and regenerative processes, causing liver fibrosis and consequently liver cirrhosis (see Natsume, M, et al., Attenuated liver fibrosis and depressed serum albumin levels in carbon tetrachloride-treated IL-6-deficient mice. J. Leukoc. Biol., 1999, 66, 601-608 also See Yao, Q, Y, et al. Inhibition by curcumin of multiple sites of the transforming growth factor-beta1 signalling pathway ameliorates the progression of liver fibrosis induced by carbon tetrachloride in rats. BMC Complement Altern Med. 2012 Sep. 16; 12(1):156.)
Rats are administered orally with CCl4 at a concentration of 0.25 μL/g in olive oil, 3 times per week for 6 weeks. Compound 22 is given 0.1-100 mg/Kg throughout the period of the experimental procedure or only 3 weeks after CCl4 administration and then throughout the entire study. […]

[3] = target: Human recombinant SSAO/VAP-1 (Homo sapiens (Human), UniProt Q16853); test: Human recombinant SSAO/VAP-1 amine oxidase inhibition; assay type: biochemical; details: 30 min preincubation at 37° C., 600 μM benzylamine
In short: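 Purified SSAO/VAP-1 (residues 34-763, expressed in CHO Lec 8 cells; 0.25 μg/mL) preincubated 30 min at 37° C with compound in 0.1 M sodium phosphate pH 7.4. Reaction mix of 600 μM benzylamine, 120 μM Amplex Red and 1.5 U/mL HRP added; fluorescence (ex 565/em 590 nm) read every 2.5 min for 30 min; IC50 from kinetic slopes over 4-11 point curves.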

Chain of Human LOXL2 (Q9Y4K0 26-774): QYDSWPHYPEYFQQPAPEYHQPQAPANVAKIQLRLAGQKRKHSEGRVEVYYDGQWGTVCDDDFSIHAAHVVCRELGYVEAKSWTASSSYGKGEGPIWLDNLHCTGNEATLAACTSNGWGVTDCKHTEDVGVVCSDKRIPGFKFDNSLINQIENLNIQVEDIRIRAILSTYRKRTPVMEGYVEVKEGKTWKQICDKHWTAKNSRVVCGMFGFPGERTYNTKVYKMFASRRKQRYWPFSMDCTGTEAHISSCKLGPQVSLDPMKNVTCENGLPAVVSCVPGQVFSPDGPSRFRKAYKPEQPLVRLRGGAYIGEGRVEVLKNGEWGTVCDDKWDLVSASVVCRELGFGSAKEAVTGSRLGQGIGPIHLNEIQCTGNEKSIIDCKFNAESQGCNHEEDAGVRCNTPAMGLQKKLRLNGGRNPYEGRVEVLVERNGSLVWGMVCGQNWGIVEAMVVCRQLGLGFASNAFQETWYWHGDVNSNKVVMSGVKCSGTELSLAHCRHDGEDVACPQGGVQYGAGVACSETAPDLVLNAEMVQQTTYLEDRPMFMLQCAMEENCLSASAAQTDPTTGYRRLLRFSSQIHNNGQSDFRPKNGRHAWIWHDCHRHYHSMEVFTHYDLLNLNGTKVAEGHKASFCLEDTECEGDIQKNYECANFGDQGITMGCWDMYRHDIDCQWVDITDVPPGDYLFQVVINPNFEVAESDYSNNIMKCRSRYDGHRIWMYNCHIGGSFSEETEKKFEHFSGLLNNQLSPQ
Chain of Recombinant human MAO-B (P27338 whole entry): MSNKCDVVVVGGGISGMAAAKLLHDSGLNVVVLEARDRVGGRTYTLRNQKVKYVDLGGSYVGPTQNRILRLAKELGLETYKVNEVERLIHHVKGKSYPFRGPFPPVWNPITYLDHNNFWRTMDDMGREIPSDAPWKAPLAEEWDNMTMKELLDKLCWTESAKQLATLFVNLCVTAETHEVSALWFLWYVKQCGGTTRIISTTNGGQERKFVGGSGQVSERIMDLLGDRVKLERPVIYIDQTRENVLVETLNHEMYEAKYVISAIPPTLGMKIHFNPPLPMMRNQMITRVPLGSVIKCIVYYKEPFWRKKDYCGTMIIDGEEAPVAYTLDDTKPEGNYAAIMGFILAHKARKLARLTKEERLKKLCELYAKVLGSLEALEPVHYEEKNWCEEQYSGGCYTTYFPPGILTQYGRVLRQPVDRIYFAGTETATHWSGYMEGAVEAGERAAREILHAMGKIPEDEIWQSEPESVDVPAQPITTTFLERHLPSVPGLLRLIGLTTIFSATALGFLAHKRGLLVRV
Chain of Bovine LOX (P33072 170-418): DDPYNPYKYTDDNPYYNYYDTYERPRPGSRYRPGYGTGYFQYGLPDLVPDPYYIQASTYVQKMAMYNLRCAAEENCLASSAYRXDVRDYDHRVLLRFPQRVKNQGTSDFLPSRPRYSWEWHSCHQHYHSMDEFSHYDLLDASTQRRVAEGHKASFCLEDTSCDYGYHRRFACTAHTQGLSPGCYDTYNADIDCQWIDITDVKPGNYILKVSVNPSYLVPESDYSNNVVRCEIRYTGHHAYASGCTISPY
Chain of Human recombinant SSAO/VAP-1 (Q16853 34-763): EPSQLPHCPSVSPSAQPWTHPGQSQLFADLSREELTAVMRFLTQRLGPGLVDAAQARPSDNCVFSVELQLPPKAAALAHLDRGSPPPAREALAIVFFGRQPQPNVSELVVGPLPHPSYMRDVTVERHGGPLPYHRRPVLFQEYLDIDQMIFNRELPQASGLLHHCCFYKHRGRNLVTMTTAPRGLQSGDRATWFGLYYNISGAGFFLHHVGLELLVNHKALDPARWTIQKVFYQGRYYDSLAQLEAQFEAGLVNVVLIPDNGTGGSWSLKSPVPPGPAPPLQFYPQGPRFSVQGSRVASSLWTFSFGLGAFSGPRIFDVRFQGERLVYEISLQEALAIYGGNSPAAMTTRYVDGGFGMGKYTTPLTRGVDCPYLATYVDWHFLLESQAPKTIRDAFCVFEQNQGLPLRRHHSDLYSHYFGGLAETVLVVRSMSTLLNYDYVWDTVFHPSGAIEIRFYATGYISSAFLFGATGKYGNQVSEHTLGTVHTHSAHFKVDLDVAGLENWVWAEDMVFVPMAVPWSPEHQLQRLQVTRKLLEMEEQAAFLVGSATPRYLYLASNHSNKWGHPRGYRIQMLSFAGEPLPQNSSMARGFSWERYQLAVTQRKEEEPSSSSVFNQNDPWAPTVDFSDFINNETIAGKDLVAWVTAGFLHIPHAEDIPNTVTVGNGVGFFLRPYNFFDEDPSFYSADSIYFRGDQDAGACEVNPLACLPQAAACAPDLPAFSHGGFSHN

Row | Structure (SMILES) | collagen cross-link formation [1] | IC50 (Bovine LOX) | IC50 (Human LOXL2) | IC50 (Recombinant human MAO-B) | inhibition of liver collagen by hydroxyproline analysis ([2]; CCl4 model, statistically significant) | reduction of liver fibrosis by sirius red staining with quantification ([2]; rats, oral CCl4 3 times per week for 6 weeks, versus vehicle-treated group) | IC50 [3]
1 | N#CCCN [BAPN, β-aminopropionitrile] | reduced cross-link formation in a concentration dependent manner | – | – | – | – | – | –
2 | CC(C)c1c(Cc2ccc(S(C)(=O)=O)nc2)c2ncccc2n1C/C(F)=C/CN [Compound 22, trihydrochloride] | – | > 300 nM | < 300 nM | > 3000 nM | > 30% | up to 50% | > 3000 nM
3 | Cc1c(Cc2ccc(S(C)(=O)=O)c(Cl)c2)c2ncccc2n1C/C(F)=C/CN [Compound 35, (Z)-4-(3-(3-chloro-4-(methylsulfonyl)benzyl)-2-methyl-1H-pyrrolo[3,2-b]pyridin-1-yl)-3-fluorobut-2-en-1-amine dihydrochloride] | – | > 300 nM | < 300 nM | > 3000 nM | – | – | > 3000 nM
4 | Cc1cc2c(cn1)c(Cc1ccc(S(C)(=O)=O)cc1)c(C)n2C/C(F)=C/CN [Compound 36, (Z)-4-(2,6-dimethyl-3-(4-(methylsulfonyl)benzyl)-1H-pyrrolo[3,2-c]pyridin-1-yl)-3-fluorobut-2-en-1-amine dihydrochloride] | – | > 300 nM | < 300 nM | > 3000 nM | – | – | > 3000 nM
5 | Cc1cc2c(nn1)c(Cc1ccc(S(=O)(=O)N(C)C)cc1)c(C)n2C/C(F)=C/CN [Compound 37, (Z)-4-((5-(4-amino-2-fluorobut-2-en-1-yl)-3,6-dimethyl-5H-pyrrolo[3,2-c]pyridazin-7-yl)methyl)-N,N-dimethylbenzenesulfonamide dihydrochloride] | – | > 300 nM | < 300 nM | > 3000 nM | – | – | > 3000 nM
6 | Cc1ncc2c(n1)c(Cc1ccc(S(C)(=O)=O)cc1)c(C)n2C/C(F)=C/CN [Compound 38, (Z)-4-(2,6-dimethyl-7-(4-(methylsulfonyl)benzyl)-5H-pyrrolo[3,2-d]pyrimidin-5-yl)-3-fluorobut-2-en-1-amine dihydrochloride] | – | > 300 nM | < 300 nM | > 3000 nM | – | – | > 3000 nM
7 | Cc1ncc2c(n1)c(Cc1ccc(S(=O)(=O)N(C)C)cc1)c(C)n2C/C(F)=C/CN [Compound 39, (Z)-4-((5-(4-amino-2-fluorobut-2-en-1-yl)-2,6-dimethyl-5H-pyrrolo[3,2-d]pyrimidin-7-yl)methyl)-N,N-dimethylbenzenesulfonamide dihydrochloride] | – | > 300 nM | < 300 nM | > 3000 nM | – | – | > 3000 nM
8 | Cc1ccc2c(n1)c(CCc1ccc(S(C)(=O)=O)cc1)c(C)n2C/C(F)=C/CN [Compound 40, (Z)-4-(2,5-dimethyl-3-(4-(methylsulfonyl)phenethyl)-1H-pyrrolo[3,2-b]pyridin-1-yl)-3-fluorobut-2-en-1-amine dihydrochloride] | – | > 300 nM | < 300 nM | > 3000 nM | – | – | > 3000 nM
9 | CC(C)c1c(Cc2ccc(S(=O)(=O)C(C)C)nc2)c2ncccc2n1C/C(F)=C/CN [Compound 41, (Z)-3-fluoro-4-(2-isopropyl-3-((6-(isopropylsulfonyl)pyridin-3-yl)methyl)-1H-pyrrolo[3,2-b]pyridin-1-yl)but-2-en-1-amine hydrochloride] | – | > 300 nM | < 300 nM | > 3000 nM | – | – | > 3000 nM
10 | CC(C)c1c(C(O)c2ccc(S(C)(=O)=O)nc2)c2ncccc2n1C/C(F)=C/CN (stereo not drawn) [Compound 42, (Z)-(1-(4-amino-2-fluorobut-2-en-1-yl)-2-isopropyl-1H-pyrrolo[3,2-b]pyridin-3-yl)(6-(methylsulfonyl)pyridin-3-yl)methanol dihydrochloride] | – | > 300 nM | < 300 nM | > 3000 nM | – | – | > 3000 nM
